Experimental data published in ChEMBL document CHEMBL1201862, “PubChem BioAssay data set” (2004).
The source made the active and inactive calls.

What was measured:
[1] = tested on: HEK293; experiment: Fluorescence-based counterscreen for potentiators or agonists of NPY-Y2: cell-based high-throughput dose response assay to identify inhibitors of cyclic nucleotide gated ion channel (CNGC) activity. In this assay, the parental HEK293 cell line transfected with a cyclic-nucleotide gated ion channel (CNGC)-based cAMP sensor is used to measure inhibition of isoproterenol-induced CNGC activity by test compound.; assay type: functional; settings: Homo sapiens;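 also: stimulus is 1 µM isoproterenol at EC100 plus PDE inhibitor Ro 20-1724 at 25 µM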
[2] = target: fMet-Leu-Phe receptor (Homo sapiens, UniProt P21462); experiment: formyl peptide receptor binders – dose response (AID 519); assay type: functional
[3] = target: T1, Neuropeptide Y receptor type 2 (Homo sapiens, UniProt P49146); experiment: Fluorescence-based cell-based high-throughput dose response assay for agonists of NPY-Y2. [Related pubchem assays: 1703 (Screening assay (CNGC inhibitors).), 1359 (Screening assay (NPY-Y2 potentiators or agonists).), 1304 (Screening assay (NPY-Y1 potentiators or agonists).), 1710 (Screening assay (NPY-Y2 agonists).), 1791 (Summary AID.)]; assay type: functional
T1 sequence (P49146 whole entry): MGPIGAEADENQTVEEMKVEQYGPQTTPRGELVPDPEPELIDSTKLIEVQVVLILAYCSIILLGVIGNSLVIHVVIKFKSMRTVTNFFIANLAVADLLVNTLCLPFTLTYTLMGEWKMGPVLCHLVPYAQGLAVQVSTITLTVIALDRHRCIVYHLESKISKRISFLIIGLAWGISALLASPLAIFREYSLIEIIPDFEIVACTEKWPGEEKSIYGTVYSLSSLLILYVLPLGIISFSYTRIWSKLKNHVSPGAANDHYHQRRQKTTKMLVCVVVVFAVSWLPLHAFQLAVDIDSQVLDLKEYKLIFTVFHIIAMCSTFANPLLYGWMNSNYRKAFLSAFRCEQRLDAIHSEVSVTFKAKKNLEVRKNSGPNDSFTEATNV

[4] = target: T2, Neuropeptide Y receptor type 1 (Homo sapiens, UniProt P25929); experiment: Fluorescence-based counterscreen for agonists of NPY-Y2: cell-based high-throughput dose response assay for agonists of NPY-Y1.; assay type: functional
T2 sequence (P25929 whole entry): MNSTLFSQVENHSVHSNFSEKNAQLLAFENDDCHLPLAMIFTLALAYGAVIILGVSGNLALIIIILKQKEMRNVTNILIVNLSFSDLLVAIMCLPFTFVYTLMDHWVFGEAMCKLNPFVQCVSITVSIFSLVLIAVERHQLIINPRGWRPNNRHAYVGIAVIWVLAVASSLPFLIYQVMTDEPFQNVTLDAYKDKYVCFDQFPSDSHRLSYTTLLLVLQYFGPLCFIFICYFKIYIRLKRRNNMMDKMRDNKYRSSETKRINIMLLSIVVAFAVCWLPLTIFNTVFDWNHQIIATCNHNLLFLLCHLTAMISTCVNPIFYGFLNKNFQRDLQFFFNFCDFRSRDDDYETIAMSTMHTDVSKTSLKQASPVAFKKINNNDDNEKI

[5] = target: Genome polyprotein (dengue virus type 2, UniProt P29990); experiment: flavivirus cap methylation enzyme inhibition – biochemical, confirmation dose response, primary screen (AID 588689); assay type: functional
[6] = target: T3, Long-chain-fatty-acid--AMP ligase FadD28 (Mycobacterium tuberculosis, UniProt P9WQ59); experiment: Fluorescence polarization aasay to screen for inhibitors that compete for the binding of FadD28 to a bisubstrate Measured in Biochemical System Using Plate Reader - 2147-01_Inhibitor_Dose_CherryPick_Activity.; assay type: functional, Mycobacterium tuberculosis H37Rv
T3 sequence (P9WQ59 whole entry): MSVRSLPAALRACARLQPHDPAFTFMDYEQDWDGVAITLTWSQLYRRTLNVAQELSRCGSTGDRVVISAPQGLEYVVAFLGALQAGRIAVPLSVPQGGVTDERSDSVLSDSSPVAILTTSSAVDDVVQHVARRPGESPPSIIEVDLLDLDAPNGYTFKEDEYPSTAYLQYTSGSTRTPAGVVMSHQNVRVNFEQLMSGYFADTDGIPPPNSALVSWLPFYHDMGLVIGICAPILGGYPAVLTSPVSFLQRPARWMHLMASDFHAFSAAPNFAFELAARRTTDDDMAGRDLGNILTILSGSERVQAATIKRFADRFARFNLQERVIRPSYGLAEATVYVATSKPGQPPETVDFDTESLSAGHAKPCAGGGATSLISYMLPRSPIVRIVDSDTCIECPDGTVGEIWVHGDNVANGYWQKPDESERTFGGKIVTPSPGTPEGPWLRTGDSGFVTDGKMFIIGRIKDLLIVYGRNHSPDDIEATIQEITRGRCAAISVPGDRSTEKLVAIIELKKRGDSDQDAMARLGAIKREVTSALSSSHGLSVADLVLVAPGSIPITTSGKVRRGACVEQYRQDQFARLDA

[7] = CCR5-tropic HIV-1 fusion blockers – cell-based, CCR5-tropic Env, dose response (AID 2279); assay type: functional
[8] = tested on: Vero; experiment: viability of Vero cells under compound – cytotoxicity control for flavivirus capping enzyme inhibitors (AID 588742); assay type: functional; settings: Chlorocebus sabaeus
[9] = inhibition of ARNT PAS-B/TACC3 complex formation – biochemical, AlphaScreen, cherry-picked samples, confirmation (AID 651703); assay type: functional, Homo sapiens;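 also: His-tagged ARNT PAS-B domain paired with GST-TACC3 E629A dimer coactivator fragment; potency of inhibitors that break up the complex and lower AlphaScreen signal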
[10] = target: T4, Tyrosine-protein phosphatase non-receptor type 7 (Homo sapiens, UniProt P35236); experiment: HePTP tyrosine phosphatase activity blockers – biochemical, absorbance, leukemia target, primary screen (AID 521); assay type: functional
T4 sequence (P35236 whole entry): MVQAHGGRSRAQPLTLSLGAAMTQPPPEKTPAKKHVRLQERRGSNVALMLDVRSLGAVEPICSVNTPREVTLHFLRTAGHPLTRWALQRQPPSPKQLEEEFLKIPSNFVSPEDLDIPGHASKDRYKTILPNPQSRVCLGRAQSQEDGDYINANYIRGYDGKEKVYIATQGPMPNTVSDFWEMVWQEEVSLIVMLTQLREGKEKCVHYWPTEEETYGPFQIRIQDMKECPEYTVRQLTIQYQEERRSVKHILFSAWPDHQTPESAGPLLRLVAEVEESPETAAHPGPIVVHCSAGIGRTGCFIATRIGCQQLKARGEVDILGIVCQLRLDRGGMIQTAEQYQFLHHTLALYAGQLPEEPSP

[11] = target: T5, Induced myeloid leukemia cell differentiation protein Mcl-1 (Homo sapiens, UniProt Q07820); experiment: blockers of MCL1 binding to BIM peptide – biochemical, fluorescence polarization, BIM-BH3 peptide, 1536-well, dose response (AID 2217)
[12] = target: T6, Genome polyprotein (Hepatitis C virus, UniProt Q2Q167); experiment: disruption of hepatitis C core self-association – biochemical, TR-FRET, dose response (AID 2159); set-up: species or system Hepacivirus hominis;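 also: blocks dimerization of HCV core protein measured by TR-FRET between tagged core106 pairs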
T6 sequence (Q2Q167 whole entry): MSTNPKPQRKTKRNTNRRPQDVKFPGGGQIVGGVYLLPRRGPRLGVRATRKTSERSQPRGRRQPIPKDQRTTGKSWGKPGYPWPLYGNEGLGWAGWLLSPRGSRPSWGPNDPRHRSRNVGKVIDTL

[13] = target: Bcl-2-like protein 1 (Homo sapiens, UniProt Q07817); experiment: blockers of BCLXL peptide binding – biochemical, fluorescence polarization, 1536-well, selectivity assay for MCL1 inhibitor project, dose response (AID 2218)
[14] = target: T5, Induced myeloid leukemia cell differentiation protein Mcl-1; assay type: functional
[15] = target: Eukaryotic translation initiation factor 4E (Mus musculus, UniProt P63073); experiment: blockers of eIF4G binding by eIF4E – biochemical, TR-FRET, dose response (AID 855); assay type: functional;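 also: potency for disrupting eIF4E binding to eIF4GI seen as loss of FRET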
[16] = target: Peroxisome proliferator-activated receptor gamma/Nuclear receptor coactivator 1 (Homo sapiens, UniProt P37231); assay type: functional;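 also: agonist potency as compounds enhance coactivator SRC-1 recruitment to PPARgamma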
[17] = target: Peroxisome proliferator-activated receptor gamma/Nuclear receptor coactivator 2 (Homo sapiens, UniProt P37231); assay type: functional;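 also: agonist potency for raising coactivator recruitment to the receptor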
[18] = target: Peroxisome proliferator-activated receptor gamma/Nuclear receptor coactivator 3 (Homo sapiens, UniProt P37231); assay type: functional;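 also: agonist potency for raising coactivator recruitment to the receptor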
[19] = luciferase reporter signal reduction – luminescence, H4-C neuroglioblastoma cells, dose response (AID 2458); assay type: functional, cell-based;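 also: H4 neuroglioblastoma cells stably carrying a luciferase reporter gene fusion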
[20] = HEK-293T viability loss after treatment – luminescence, T-cell screen hits, cytotoxicity control for TCR NF-kB inhibitor project, dose response (AID 489026); assay type: functional, cell-based;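 also: cells exposed to compound about 14 hours before the viability readout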
[21] = target: Paired box protein Pax-8 (Homo sapiens, UniProt Q06710); experiment: PAX8 transcriptional activity inhibition in RMG-I – RMG-I cells, luciferase, cherry-pick, dose response (AID 687027); assay type: functional, cell-based;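 also: luciferase reporter driven by Pax8 target thyroperoxidase promoter measured by SteadyGlo luminescence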
[22] = tested on: BJ; experiment: cells; assay type: functional, cell-based; settings: Homo sapiens
[23] = tested on: BJ; experiment: BJ-TERT-LT-ST fibroblast viability loss – cell-based, RAS-independent, luminescence, dose response (AID 1935); assay type: functional; settings: Homo sapiens;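 also: BJ fibroblasts immortalized with TERT plus LT and ST oncogenes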
[24] = DRD fibroblast viability loss – cell-based, non-viral oncogenic, luminescence, dose response (AID 1934); assay type: functional; settings: Homo sapiens
[25] = tested on: BJ; experiment: BJ-TERT fibroblast viability loss – cell-based, RAS-independent, luminescence, dose response (AID 1933); assay type: functional; settings: Homo sapiens
[26] = alpha-synuclein stem-loop translation blockers – luminescence, H4 neuroglioblastoma cells, dose confirmation, confirmation (AID 2454); assay type: functional, cell-based;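 also: H4 neuroglioblastoma cells carrying an alpha-synuclein 5'UTR luciferase reporter; potency for inhibition of the luciferase signal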
[27] = luciferase reporter signal suppression in cells – H4 neuroglioma cells, luminescence, dose response (AID 1990); assay type: functional, cell-based
[28] = alpha-synuclein stem-loop luciferase translation blockers – H4 neuroglioma cells, luminescence, confirmation (AID 1988); assay type: functional, cell-based
[29] = cells; assay type: functional, cell-based
[30] = Luminescence Cell-Based Dose Response HTS to Identify Inhibitors of 5'UTR Stem-Loop Driven Prion Protein mRNA Translation in H4 Neuroglioblastoma Cells. [Related pubchem assays: 1827 (Project Summary), 1813 (Primary HTS)]; assay type: functional
[31] = target: T7, DNA repair protein RAD52 homolog (Homo sapiens, UniProt P43351); assay type: functional, biochemical
T7 sequence (P43351 whole entry): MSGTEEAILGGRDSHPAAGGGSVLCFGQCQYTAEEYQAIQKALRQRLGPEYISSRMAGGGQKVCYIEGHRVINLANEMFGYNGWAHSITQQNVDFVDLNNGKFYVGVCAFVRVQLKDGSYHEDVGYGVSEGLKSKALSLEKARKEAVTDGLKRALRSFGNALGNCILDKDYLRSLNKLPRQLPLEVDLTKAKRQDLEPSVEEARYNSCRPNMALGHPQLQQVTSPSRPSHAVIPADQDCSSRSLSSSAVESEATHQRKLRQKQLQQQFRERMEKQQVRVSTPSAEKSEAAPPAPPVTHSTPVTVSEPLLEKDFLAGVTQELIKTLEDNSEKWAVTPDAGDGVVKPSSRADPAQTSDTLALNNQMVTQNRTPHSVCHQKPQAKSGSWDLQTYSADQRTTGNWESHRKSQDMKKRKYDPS

[32] = viability loss in THP-1 monocytes – THP-1 cells, cytotoxicity control for Vif-APOBEC3G degradation inhibitor project, dose response (AID 1117359); assay type: functional; settings: THP-1

T5 sequence (Q07820 whole entry): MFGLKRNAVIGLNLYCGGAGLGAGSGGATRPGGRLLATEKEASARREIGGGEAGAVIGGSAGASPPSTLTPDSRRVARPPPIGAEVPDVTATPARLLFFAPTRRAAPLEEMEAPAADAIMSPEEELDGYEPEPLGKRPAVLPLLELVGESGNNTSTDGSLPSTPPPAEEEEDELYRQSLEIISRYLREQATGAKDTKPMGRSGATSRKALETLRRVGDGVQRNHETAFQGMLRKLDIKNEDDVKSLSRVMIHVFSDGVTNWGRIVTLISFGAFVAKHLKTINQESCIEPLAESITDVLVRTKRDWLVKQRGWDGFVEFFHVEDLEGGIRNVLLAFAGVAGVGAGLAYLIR
Chain of Peroxisome proliferator-activated receptor gamma/Nuclear receptor coactivator 2 (P37231 whole entry): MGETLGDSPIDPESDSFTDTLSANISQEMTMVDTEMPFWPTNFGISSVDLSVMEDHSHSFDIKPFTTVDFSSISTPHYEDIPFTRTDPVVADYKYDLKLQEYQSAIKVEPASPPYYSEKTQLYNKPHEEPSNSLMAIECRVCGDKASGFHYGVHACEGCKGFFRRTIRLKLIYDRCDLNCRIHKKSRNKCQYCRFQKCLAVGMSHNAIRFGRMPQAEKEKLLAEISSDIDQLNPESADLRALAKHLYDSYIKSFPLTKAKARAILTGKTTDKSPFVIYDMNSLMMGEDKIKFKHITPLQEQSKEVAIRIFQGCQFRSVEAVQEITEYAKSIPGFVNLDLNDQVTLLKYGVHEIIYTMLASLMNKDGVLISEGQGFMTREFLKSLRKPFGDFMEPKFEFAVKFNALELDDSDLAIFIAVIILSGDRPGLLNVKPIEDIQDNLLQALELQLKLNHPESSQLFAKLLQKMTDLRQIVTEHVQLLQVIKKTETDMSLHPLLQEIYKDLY
Chain of Peroxisome proliferator-activated receptor gamma/Nuclear receptor coactivator 2 (Q15596 whole entry, further chain): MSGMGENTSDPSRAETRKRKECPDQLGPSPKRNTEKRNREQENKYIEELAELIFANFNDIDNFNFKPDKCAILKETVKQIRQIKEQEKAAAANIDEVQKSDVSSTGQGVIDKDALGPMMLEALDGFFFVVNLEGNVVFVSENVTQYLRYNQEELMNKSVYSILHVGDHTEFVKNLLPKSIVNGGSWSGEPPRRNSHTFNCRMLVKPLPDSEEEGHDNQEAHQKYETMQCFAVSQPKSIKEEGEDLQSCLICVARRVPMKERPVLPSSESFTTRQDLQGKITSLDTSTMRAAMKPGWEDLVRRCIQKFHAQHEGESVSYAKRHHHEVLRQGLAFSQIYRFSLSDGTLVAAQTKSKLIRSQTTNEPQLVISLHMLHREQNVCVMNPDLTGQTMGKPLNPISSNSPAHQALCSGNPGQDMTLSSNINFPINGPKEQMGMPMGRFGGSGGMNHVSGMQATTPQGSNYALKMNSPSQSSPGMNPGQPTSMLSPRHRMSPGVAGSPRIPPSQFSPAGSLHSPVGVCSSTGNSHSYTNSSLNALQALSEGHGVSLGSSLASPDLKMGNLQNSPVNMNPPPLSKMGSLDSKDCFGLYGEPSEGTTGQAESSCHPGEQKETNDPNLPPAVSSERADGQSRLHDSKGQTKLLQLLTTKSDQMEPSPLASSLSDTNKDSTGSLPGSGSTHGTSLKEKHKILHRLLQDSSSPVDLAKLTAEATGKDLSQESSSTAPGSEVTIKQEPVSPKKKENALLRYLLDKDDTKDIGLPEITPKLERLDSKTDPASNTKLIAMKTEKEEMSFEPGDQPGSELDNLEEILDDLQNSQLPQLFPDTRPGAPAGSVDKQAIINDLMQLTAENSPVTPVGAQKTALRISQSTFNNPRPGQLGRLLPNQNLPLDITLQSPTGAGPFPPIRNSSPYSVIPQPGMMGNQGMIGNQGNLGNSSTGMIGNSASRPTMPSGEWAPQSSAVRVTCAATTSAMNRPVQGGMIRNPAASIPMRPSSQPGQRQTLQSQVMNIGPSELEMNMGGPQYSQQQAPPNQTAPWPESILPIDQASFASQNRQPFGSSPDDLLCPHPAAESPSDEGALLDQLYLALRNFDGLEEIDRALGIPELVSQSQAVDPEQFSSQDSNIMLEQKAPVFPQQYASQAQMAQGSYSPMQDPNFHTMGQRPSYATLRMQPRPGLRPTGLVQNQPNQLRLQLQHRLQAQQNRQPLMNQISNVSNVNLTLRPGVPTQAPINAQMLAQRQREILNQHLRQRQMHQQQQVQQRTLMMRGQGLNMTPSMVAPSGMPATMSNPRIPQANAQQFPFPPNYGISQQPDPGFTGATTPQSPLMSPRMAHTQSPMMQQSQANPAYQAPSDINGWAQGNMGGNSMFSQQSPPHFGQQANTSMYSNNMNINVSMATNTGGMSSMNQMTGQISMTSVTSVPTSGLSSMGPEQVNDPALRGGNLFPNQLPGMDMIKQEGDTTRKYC
Chain of Peroxisome proliferator-activated receptor gamma/Nuclear receptor coactivator 3 (P37231 whole entry, the tested form may be a part): as the sequence (P37231 whole entry) above
Chain of Peroxisome proliferator-activated receptor gamma/Nuclear receptor coactivator 3 (Q9Y6Q9 whole entry, further chain, the tested form may be a part): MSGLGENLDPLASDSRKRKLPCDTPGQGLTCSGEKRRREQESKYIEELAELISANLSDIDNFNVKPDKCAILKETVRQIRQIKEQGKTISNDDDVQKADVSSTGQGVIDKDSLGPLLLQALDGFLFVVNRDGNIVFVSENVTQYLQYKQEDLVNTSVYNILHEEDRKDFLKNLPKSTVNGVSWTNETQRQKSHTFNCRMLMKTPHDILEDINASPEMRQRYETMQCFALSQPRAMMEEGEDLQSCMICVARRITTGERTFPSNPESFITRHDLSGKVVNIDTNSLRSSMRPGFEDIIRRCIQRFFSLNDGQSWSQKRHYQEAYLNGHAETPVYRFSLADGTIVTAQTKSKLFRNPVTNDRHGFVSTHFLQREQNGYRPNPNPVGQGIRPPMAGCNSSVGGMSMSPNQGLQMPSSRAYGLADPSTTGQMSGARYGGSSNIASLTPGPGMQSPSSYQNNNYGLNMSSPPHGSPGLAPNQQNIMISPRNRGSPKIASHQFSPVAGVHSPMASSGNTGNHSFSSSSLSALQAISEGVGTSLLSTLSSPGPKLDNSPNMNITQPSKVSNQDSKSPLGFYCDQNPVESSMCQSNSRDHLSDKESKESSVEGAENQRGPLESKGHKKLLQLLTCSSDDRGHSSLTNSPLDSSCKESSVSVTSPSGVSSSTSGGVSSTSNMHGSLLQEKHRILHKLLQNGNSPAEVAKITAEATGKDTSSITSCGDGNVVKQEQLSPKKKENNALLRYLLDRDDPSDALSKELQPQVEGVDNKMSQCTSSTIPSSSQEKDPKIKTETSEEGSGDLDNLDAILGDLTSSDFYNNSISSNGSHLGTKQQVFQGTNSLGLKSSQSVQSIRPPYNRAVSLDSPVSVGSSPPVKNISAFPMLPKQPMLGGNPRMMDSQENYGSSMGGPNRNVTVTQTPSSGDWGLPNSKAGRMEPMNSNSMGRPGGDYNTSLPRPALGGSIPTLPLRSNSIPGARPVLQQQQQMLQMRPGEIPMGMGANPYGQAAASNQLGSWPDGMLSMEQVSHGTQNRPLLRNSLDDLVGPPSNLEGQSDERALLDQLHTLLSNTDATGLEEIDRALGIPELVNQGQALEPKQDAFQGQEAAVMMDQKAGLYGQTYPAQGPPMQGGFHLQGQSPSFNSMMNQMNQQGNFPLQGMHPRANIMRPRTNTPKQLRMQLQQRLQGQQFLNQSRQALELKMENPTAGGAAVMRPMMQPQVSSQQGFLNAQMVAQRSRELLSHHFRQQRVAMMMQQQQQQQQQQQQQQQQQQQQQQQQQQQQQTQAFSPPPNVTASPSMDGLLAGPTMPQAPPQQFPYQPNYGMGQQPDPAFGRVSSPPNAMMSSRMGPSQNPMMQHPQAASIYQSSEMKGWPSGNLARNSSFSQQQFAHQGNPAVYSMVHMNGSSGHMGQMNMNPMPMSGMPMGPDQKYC
Chain of Eukaryotic translation initiation factor 4E (P63073 whole entry): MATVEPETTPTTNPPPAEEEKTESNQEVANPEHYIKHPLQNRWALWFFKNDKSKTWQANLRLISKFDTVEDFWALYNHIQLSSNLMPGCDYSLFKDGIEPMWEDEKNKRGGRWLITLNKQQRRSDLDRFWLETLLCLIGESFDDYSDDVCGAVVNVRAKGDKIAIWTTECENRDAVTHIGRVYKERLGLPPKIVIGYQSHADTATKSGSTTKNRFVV
Chain of Paired box protein Pax-8 (Q06710 whole entry): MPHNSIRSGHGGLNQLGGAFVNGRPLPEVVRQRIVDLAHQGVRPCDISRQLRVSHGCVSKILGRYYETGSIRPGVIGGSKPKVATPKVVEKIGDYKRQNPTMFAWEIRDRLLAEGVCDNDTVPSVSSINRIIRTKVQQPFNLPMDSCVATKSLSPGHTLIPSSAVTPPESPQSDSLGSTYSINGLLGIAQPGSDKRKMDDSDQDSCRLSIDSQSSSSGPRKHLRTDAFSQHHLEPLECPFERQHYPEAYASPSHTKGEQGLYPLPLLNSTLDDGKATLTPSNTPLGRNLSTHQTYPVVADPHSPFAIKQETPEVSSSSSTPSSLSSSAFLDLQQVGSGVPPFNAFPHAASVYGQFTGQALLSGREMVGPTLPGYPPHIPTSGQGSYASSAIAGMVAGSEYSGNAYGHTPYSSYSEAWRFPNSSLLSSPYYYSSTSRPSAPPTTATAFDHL

## O=C(O)C1CC=CCC1C(=O)N1CCN(c2nc(-c3ccccc3)c3ccccc3n2)CC1 (stereo not given)
[1]
  EC50: > 3.94 µM (active)
[2]
  Ki: > 66.7 µM (inactive)
[3]
  EC50: > 35.4 µM (not active)
[4]
  EC50: 22 µM (not active)

## CC(C(=O)Nc1ccc(O)c(C(=O)O)c1)N1C(=O)/C(=C/c2cccs2)SC1=S (stereo not given)
[5]
  IC50: 41.1 µM (active)
[6]
  AC50: > 100 µM (inactive)
[7]
  IC50: > 50 µM (active)
[8]
  CC50: > 40 µM (active)
[9]
  AC50: 132 µM (active)

## O=[N+]([O-])c1cccc2c(N3CCOCC3)ccnc12
[1]
  EC50: > 35.4 µM (not active)
[3]
  EC50: > 35.4 µM (not active)
[4]
  EC50: > 35.4 µM (not active)

## O=C(NCCCN1CCCC1=O)c1ccc(Cl)c(NS(=O)(=O)c2ccc(F)cc2)c1
[10]
  IC50: > 100 µM (not active)

## C=CCSc1nsc(N)n1
[10]
  IC50: > 100 µM (not active)

## COc1ccc(Cc2nnc(NC(=O)Cc3cccs3)s2)cc1OC
[11]
  IC50: 5.14 µM (active)
[12]
  IC50: > 49.8 µM (not active)
[13]
  IC50: > 109 µM (not active)
[14]
  IC50: 1.97 µM (active)
[15]
  IC50: 19.1 µM (active)

## O=C(NCc1nnc(S)n1-c1ccc(Br)cc1)c1ccc(S(=O)(=O)N2CCOCC2)cc1
[16]
  EC50: > 79.4 µM (not active)
[17]
  EC50: > 79.4 µM (not active)
[18]
  EC50: > 79.4 µM (not active)

## COc1cc(C2C3=C(Nc4ncnn42)c2ccccc2CC3)cc(OC)c1OC (stereo not given)
[19]
  EC50: 0.21 µM (active)
[20]
  IC50: > 80 µM (inactive)
[21]
  AC50: 2.18 µM (active)
[22]
  EC50: 0.659 µM (active)
[23]
  EC50: 0.498 µM (inconclusive)
[24]
  EC50: 0.532 µM (active)
[25]
  EC50: 0.572 µM (active)
[26]
  EC50: 0.348 µM (active)
[27]
  EC50: < 0.1 µM (active)
[28]
  EC50: < 0.1 µM (active)
[29]
  EC50: 0.452 µM (active)
[30]
  EC50: < 0.1 µM (active)

## COCCN1C(=O)/C(=C/c2ccc(OCc3ccc(C(=O)O)cc3)c(OC)c2)S/C1=N\c1ccccc1
[7]
  IC50: 40.2 µM (active)

## O=C(N/N=C/c1cnc(N2CCCCC2)s1)c1ccc(Cl)cc1
[16]
  EC50: > 79.4 µM (not active)
[17]
  EC50: > 79.4 µM (not active)
[18]
  EC50: > 79.4 µM (not active)

## CC1=CC(C)(C)N=C(Nc2nc(C)c3cc(C)cc(C)c3n2)N1
[31]
  AC50: 5.16 µM (active)
[32]
  CC50: 37.6 µM (active)
